Laboratory results from patent publication US12514249B2, “Oxaloacetate and related compounds as herbicidal agents” (Verdesian Life Sciences U.S., LLC, priority 2020, dated 2026).

System: plants
Experiment: general screening of the herbicidal effect
Type: in vivo
Settings: 10% w/w; compared with Roundup RTU and Bayer Advanced (10% and 100% Label Rate) and untreated control; FIG. 1
Experimental: A general screening of the herbicidal effect of the following compounds was carried out: Bayer Advanced® (100% Label Rate), Bayer Advanced® (10% Lable Rate), UTC (=untreated control), Diethyl Oxalacetate (10% w/w), Roundup® RTU (RTU=ready to use) (10% Label Rate) and Roundup® RTU (100% Label Rate).

Structure (SMILES): CCOC(=O)/C=C(\O)C(=O)OCC [Diethyl Oxalacetate]
- herbicidal activity: comparable to well-known herbicide products such as Roundup® and Bayer Advanced®
